According to US20240174648A1, “Small Molecule Compound” (Technoderma Medicines Pte Ltd, priority 2019, published 2024):

Key:
Format in all cases: biochemical
[1] = target: Tyk2 (Homo sapiens, UniProt P29597); test: JAK kinase inhibition assay (EZ Reader, peptide substrate phosphorylation) - Tyk2; details: Tyk2 kinase 1 nM; 8 concentration points, max 10 μM
Outline: (§1)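 Microfluidic mobility-shift detection of fluorescent peptide substrate phosphorylation, with JAK1 at 20 nM and JAK2, JAK3 and Tyk2 each at 1 nM final, in 20 mM HEPES pH 7.4, 10 mM MgCl2, 1 mM DTT. Reactions run at room temperature to 20–30% conversion, then EDTA-stopped. Compounds tested at 8 three-fold dilutions from 10 μM top final; IC50 from conversion curves.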

[2] = target: JAK1 (Homo sapiens, UniProt P23458); test: JAK kinase inhibition assay (EZ Reader, peptide substrate phosphorylation) - JAK1; details: JAK1 kinase 20 nM; 8 concentration points, max 10 μM
Outline: as §1

[3] = target: JAK2 (Homo sapiens, UniProt O60674); test: JAK kinase inhibition assay (EZ Reader, peptide substrate phosphorylation) - JAK2; details: JAK2 kinase 1 nM; 8 concentration points, max 10 μM
Text: (§2) Assay for Identifying Inhibitory Effects of Compounds on JAK Kinases
(§3) Janus kinases (JAK), including JAK1, JAK2, JAK3 and Tyk2, transduce a cytokine-mediated signal through a JAK-STAT pathway. The kinases are 120-140 kDa in size and have 7 determined homology regions: JH1 to JH7. JH1 is an important region for enzymatic activity and has typical characteristics of tyrosine kinases. Phosphorylation of tyrosine leads to a change in the conformation of JAK protein, thereby promoting binding of substrate. The JAK-STAT system includes three main parts: receptors penetrating a cell membrane, Janus kinases binding to the receptors, and signal transducers and activators of transcription (STAT) for transmitting signals to a nucleus and DNA. When cytokines bind to receptors, JAK phosphorylates the receptors and attracts STAT proteins. The STAT proteins are also phosphorylated and combined with one another to form dimers. The dimers enter the nucleus and bind to DNA, thereby leading to gene transcription.
(§4) EZ Reader from PerkinElmer can be used to detect the phosphorylation of polypeptide substrates catalyzed by kinases. The device is based on microfluidic techniques, and can directly detect fluorescently labeled substrates and products. The separation step is achieved by controlling the pressure and electric field strength in the microfluidic chip. In kinase assays, a product conversion ratio is usually controlled to be 20-30%. A biological test is used to identify inhibitory effects of compounds on JAKs.
(§5) Compound powder was dissolved in DMSO, sealed and stored in a freezer under −20° C. The in-house compound Ref1 was used as a positive control for JAK1, JAK2 and Tyk2 tests, and Ref2 was used as a positive control for JAK3 tests.
(§6) S2.8. Assay buffer: 20 mM HEPES buffer, pH 7.4, 10 mM magnesium chloride, 0.01% bovine serum albumin BSA, 0.0005% Tween-20 and 1 mM dithiothreitol solution.
(§7) S2.9. Stop buffer: 180 mM HEPES buffer, 20 mM ethylenediaminetetraacetic acid and 0.2% coating reagent 3.
(§8) S2.10. Separation buffer: 100 mM HEPES buffer, 10 mM ethylenediaminetetraacetic acid, 0.0005% Tween 20, 0.1% coating reagent 3 and 1% dimethyl sulfoxide.
The compound was dissolved in dimethyl sulfoxide and diluted to 10 mM concentration, a certain volume of solution was taken and diluted to 0.6 mM concentration, 10 μL of the 0.6 mM dilution was added to a 384-well microplate, and then was diluted 3-fold with a total of 8 concentration points.
Positive control (HPE1): Ref1, final concentration: 10 μM […]
(§9) Negative control (ZPE): DMSO, final content: 1.6%
(§10) Compounds: maximum final concentration: 10 μM; 3-fold dilution, 8 concentration points and 2 duplicates.
(§11) S4.1. 250 nL of the compound was added to each well of the assay microplate by using ECHO, and centrifuged at 1000 rpm for 1 minute.
(§12) S4.2. 5 μL of the assay buffer was added and agitated for a few seconds to fully dissolve the compound.
(§13) S4.3. 5 μL of 3× substrate solution and 5 μL of 3× kinase solution were added and centrifuged at 800 rpm for 1 minute.
(§14) S4.4. Final concentrations of JAK1, JAK2, JAK3 and Tyk2 kinases in the reaction system were 20 nM, 1 nM, 1 nM and 1 nM respectively.
(§15) S4.5. Incubation at room temperature, where kinases had time differences, and different batches of kinases had time differences.
(§16) S4.6. When 20%-30% of the reaction completed, 15 μL of stop buffer was added to stop the reaction, and centrifuged at 1000 rpm for 2 minutes.
(§17) S4.7. The microplates were placed on EZ Reader for reading.
(§18) S4.8. Readings on EZ Reader were calculated by using a peak height, where product conversion ratio (%)=product/(product+substrate)*100.
(§19) 5. Data Processing: IC50 calculation
(§20) A graphing software Xlfit was used to form a concentration curve of the test compound, and an IC50 value was calculated.
(§21) “A” means “≥10 μM”; “B” means “≥1 μM and <10 μM”; “C” means “≥0.1 μM and <1 μM”; and “D” means “<0.1 μM”.

[4] = target: T1, JAK3 (Homo sapiens, UniProt P52333); test: JAK kinase inhibition assay (EZ Reader, peptide substrate phosphorylation) - JAK3; details: JAK3 kinase 1 nM; 8 concentration points, max 10 μM
T1 sequence (P52333 1-1124): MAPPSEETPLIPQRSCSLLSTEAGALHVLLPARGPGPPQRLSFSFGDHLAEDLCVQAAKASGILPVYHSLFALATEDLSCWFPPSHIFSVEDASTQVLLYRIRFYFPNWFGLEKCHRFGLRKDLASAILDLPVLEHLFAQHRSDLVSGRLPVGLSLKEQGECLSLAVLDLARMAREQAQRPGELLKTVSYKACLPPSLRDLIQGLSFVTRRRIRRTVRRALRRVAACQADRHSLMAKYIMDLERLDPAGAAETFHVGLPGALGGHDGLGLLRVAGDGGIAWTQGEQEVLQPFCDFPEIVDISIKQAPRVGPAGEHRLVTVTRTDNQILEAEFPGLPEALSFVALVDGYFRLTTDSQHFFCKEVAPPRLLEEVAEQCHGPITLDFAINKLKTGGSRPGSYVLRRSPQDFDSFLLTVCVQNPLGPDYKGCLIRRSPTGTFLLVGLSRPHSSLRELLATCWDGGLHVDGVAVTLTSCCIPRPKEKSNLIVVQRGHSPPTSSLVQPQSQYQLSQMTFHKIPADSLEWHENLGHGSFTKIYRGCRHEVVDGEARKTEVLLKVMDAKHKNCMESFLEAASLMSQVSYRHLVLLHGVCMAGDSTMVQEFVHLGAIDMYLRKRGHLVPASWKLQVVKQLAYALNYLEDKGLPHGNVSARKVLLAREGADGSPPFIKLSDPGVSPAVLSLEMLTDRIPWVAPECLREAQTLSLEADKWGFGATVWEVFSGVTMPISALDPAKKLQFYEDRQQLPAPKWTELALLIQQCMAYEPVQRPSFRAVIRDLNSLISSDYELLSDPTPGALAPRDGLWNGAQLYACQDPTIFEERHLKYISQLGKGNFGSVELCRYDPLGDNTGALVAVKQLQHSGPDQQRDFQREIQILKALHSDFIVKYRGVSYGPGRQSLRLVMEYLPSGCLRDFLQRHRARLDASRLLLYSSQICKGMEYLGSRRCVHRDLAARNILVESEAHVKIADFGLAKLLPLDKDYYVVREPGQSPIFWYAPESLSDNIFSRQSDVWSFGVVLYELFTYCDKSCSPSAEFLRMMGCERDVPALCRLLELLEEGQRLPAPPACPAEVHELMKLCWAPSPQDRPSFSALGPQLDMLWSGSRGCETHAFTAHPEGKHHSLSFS
Text: as §2, §3, §4, §5, §6, §7, §8
The compound was dissolved in dimethyl sulfoxide and diluted to 10 mM concentration, a certain volume of solution was taken and diluted to 0.6 mM concentration, 10 μL of the 0.6 mM dilution was added to a 384-well microplate, and then was diluted 3-fold with a total of 8 concentration points. […]
Positive control (HPE1): Ref2, final concentration: 10 μM
as §9, §10, §11, §12, §13, §14, §15, §16, §17, §18, §19, §20, §21

Tyk2, sequence (P29597 whole entry): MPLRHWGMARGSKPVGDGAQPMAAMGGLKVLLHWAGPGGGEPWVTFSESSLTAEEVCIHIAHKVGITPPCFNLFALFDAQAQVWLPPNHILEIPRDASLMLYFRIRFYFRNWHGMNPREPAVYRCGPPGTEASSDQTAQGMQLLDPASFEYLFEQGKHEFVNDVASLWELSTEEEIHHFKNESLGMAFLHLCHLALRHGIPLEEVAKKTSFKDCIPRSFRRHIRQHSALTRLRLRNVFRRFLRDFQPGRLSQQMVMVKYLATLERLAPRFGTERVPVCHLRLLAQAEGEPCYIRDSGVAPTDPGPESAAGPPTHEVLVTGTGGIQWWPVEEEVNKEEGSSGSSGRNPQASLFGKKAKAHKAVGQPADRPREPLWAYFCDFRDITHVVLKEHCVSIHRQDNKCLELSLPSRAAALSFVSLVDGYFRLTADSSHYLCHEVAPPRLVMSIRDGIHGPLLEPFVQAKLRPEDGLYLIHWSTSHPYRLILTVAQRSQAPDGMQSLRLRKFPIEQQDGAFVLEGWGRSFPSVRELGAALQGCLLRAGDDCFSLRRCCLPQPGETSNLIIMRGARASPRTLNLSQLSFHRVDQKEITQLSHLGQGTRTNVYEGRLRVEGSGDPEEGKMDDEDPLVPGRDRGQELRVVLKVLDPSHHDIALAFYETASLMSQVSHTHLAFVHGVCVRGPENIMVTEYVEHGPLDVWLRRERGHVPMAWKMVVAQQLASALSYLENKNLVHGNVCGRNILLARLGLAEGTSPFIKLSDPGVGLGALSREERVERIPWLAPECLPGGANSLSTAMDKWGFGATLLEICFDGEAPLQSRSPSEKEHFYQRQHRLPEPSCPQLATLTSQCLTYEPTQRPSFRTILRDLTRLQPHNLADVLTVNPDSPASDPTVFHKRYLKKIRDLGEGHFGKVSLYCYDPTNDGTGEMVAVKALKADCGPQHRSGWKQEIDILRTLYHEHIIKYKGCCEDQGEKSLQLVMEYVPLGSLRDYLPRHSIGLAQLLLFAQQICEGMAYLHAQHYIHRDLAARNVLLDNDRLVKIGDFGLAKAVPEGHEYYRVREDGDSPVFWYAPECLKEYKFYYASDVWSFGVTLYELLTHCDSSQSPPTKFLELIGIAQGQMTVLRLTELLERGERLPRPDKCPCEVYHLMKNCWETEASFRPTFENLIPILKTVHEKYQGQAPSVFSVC
JAK2, sequence (O60674 whole entry): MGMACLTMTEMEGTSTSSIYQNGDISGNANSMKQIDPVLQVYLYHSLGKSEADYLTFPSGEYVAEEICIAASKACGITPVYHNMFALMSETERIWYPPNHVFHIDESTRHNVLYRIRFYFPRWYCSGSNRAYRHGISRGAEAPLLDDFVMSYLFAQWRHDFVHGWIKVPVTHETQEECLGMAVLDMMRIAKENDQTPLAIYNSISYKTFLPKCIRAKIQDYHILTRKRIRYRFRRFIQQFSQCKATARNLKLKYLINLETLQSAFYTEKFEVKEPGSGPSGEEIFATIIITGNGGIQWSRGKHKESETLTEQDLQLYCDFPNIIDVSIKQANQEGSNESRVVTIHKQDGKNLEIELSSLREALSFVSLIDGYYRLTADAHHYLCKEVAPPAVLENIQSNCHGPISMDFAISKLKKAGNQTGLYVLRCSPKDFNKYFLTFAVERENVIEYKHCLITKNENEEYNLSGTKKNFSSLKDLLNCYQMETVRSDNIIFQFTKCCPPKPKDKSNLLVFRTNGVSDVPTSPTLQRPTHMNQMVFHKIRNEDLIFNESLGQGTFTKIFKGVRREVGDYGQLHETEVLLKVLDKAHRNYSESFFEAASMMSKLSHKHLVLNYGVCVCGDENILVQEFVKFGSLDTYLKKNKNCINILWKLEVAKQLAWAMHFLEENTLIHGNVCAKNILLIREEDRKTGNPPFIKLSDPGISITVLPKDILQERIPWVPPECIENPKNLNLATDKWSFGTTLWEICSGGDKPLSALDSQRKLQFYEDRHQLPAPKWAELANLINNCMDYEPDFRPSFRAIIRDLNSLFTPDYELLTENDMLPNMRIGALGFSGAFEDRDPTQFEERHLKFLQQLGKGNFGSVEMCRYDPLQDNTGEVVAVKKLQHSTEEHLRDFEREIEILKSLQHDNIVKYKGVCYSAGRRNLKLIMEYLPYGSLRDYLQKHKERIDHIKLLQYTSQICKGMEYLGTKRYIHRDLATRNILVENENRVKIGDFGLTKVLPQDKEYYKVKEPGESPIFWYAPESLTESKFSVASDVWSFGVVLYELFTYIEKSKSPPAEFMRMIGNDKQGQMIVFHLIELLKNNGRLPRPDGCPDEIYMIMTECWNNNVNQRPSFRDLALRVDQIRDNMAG
JAK1, sequence (P23458 whole entry): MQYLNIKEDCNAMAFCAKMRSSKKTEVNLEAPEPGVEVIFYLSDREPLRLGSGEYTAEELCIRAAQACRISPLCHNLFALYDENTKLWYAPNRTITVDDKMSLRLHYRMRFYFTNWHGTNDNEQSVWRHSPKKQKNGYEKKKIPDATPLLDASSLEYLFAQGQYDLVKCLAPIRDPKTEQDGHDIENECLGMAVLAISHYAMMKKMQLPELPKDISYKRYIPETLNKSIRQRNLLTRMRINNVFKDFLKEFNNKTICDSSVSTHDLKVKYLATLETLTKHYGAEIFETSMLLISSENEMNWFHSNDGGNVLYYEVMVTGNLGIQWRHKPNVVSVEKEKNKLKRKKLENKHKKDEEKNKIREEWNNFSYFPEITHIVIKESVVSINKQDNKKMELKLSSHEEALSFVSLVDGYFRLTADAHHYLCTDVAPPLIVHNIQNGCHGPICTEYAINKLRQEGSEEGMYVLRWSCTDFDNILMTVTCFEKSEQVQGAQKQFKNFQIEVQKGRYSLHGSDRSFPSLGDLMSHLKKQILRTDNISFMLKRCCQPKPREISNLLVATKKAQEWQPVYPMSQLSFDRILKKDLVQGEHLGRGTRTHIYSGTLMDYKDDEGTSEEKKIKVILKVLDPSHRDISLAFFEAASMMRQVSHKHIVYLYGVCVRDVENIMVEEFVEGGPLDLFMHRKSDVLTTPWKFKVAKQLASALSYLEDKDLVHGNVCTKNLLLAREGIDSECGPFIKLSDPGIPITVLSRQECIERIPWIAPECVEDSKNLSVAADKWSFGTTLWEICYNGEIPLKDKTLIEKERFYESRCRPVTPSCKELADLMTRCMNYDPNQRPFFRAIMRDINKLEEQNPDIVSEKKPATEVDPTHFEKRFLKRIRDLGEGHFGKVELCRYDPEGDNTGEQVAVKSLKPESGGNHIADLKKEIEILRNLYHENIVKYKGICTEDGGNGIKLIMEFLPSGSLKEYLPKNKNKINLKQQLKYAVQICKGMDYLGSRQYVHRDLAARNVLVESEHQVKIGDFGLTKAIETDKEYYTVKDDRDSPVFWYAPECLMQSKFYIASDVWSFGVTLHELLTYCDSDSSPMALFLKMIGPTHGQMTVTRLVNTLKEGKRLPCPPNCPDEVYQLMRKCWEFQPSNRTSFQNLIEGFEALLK

SMILES | IC50 [1] [µM] | IC50 [2] [µM] | IC50 [3] [µM] | IC50 [4] [µM]
CCOCCS(=O)(=O)Nc1ccc(-c2ccnc(Nc3cnn(C)c3)n2)cc1 [TDM-180834, 2-ethoxyl-N-(4-(2-((1-methyl-1H-pyrazol-4-yl)amino)pyrimidin-4-yl)phenyl)ethyl-1-sulfonamide] | 0.1 to 1 | < 0.1 | < 0.1 | 1 to 10
CCCCS(=O)(=O)Nc1ccc(-c2ccnc(Nc3cnn(C)c3)n2)cc1 [TDM-180832, N-(4-(2-((1-methyl-1H-pyrazol-4-yl)amino)pyrimidin-4-yl)phenyl)butane-1-sulfonamide] | 0.1 to 1 | 0.1 to 1 | 0.1 to 1 | 1 to 10
CN1CCN(c2ccc(-c3ccnc(Nc4cnn(C)c4)n3)cc2)CC1 [TDM-180828] | 1 to 10 | 1 to 10 | 1 to 10 | ≥ 10
Cn1cc(Nc2nccc(-c3ccc(C(=O)NCC(F)(F)F)nc3)n2)cn1 [TDM-180756, 5-(2-((1-methyl-1H-pyrazole-4-yl)amino)pyrimidin-4-yl)-N-(2,2,2-trifluoroethyl)pyridinecarboxamide] | 0.1 to 1 | 0.1 to 1 | 0.1 to 1 | 1 to 10
Cn1cc(Nc2nccc(-c3ccc(NC(=O)CC(F)(F)F)cc3)n2)cn1 [TDM-180754, 3,3,3-trifluoro-N-(4-(2-((1-methyl-1H-pyrazol-4-yl)amino)pyrimidin-4-yl)phenyl)propanamide] | 0.1 to 1 | < 0.1 | < 0.1 | 1 to 10
Cn1cc(Nc2nccc(-c3ccc(C(=O)NC4CC4(F)F)cc3)n2)cn1 (stereo not shown) [TDM-180758, N-(2,2-difluorocyclopropyl)-4-(2-((1-methyl-1H-pyrazol-4-yl)amino)pyrimidin-4-yl)benzamide] | 1 to 10 | 0.1 to 1 | 1 to 10 | 1 to 10
COCC(=O)Nc1ccc(-c2ccnc(Nc3cnn(C)c3)n2)cc1 [TDM-180759, 2-methoxy-N-(4-(2-((1-methyl-1H-pyrazol-4-yl)amino)pyrimidin-4-yl)phenyl)acetamide] | 1 to 10 | 1 to 10 | 1 to 10 | ≥ 10
Cn1cc(Nc2nccc(-c3ccc(C(=O)N4CCS(=O)(=O)CC4)cc3)n2)cn1 [TDM-180749] | 1 to 10 | 1 to 10 | 1 to 10 | ≥ 10
Cn1cc(Nc2nccc(-c3ccc(NC(=O)C(F)F)cc3)n2)cn1 [TDM-180805, 2,2-difluoro-N-(4-(2-((1-methyl-1H-pyrazol-4-yl)amino)pyrimidin-4-yl)phenyl)acetamide] | 0.1 to 1 | 0.1 to 1 | 0.1 to 1 | 1 to 10
Cn1cc(Nc2nccc(-c3ccc(NS(=O)(=O)CCC(F)(F)F)cc3)n2)cn1 [TDM-180850, 3,3,3-trifluoro-N-(4-(2-((1-methyl-1H-pyrazol-4-yl)amino)pyrimidin-4-yl)phenyl)propyl-1-sulfonamide] | 0.1 to 1 | 0.1 to 1 | 0.1 to 1 | ≥ 10
Cn1cc(Nc2nccc(-c3ccc(CNCC#N)cc3)n2)cn1 [TDM-180761, 2-((4-(2-((1-methyl-1H-pyrazol-4-yl)amino)pyrimidin-4-yl)benzyl)amino)acetonitrile] | 0.1 to 1 | 0.1 to 1 | 1 to 10 | ≥ 10

Next, values leading:

IC50 [1] [µM] | IC50 [2] [µM] | IC50 [3] [µM] | IC50 [4] [µM] | SMILES
0.1 to 1 | 0.1 to 1 | 0.1 to 1 | 1 to 10 | Cn1cc(Nc2nccc(-c3ccc(NC(=O)C4CC4)nc3)n2)cn1 [TDM-180819, N-(5-(2-((1-methyl-1H-pyrazol-4-yl)amino)pyrimidin-4-yl)pyridin-2-yl)cyclopropylcarboxamide]
0.1 to 1 | 0.1 to 1 | 0.1 to 1 | 1 to 10 | Cn1cc(Nc2nccc(-c3ccc(NC(=O)CC#N)nc3)n2)cn1 [TDM-180833, 2-cyano-N-(5-(2-((1-methyl-1H-pyrazol-4-yl)amino)pyrimidin-4-yl)pyridin-2-yl)acetamide]
0.1 to 1 | 0.1 to 1 | 0.1 to 1 | 1 to 10 | Cn1cc(Nc2nccc(-c3ccc(C(=O)NCC#N)nc3)n2)cn1 [TDM-180762, N-(cyanomethyl)-5-(2-((1-methyl-1H-pyrazol-4-yl)amino)pyrimidin-4-yl)pyridinecarboxamide]
0.1 to 1 | 0.1 to 1 | 0.1 to 1 | 1 to 10 | Cn1cc(Nc2nccc(-c3ccc(NC(=O)CC4CC4)nc3)n2)cn1 [TDM-180818, 2-cyclopropyl-N-(5-(2-((1-methyl-1H-pyrazol-4-yl)amino)pyrimidin-4-yl)pyridin-2-yl)acetamide]
1 to 10 | 0.1 to 1 | 0.1 to 1 | ≥ 10 | Cn1cc(Nc2nccc(-c3ccc(NC(=O)C4CCC4)cc3)n2)cn1 [TDM-180813, N-(4-(2-((1-methyl-1H-pyrazol-4-yl)amino)pyrimidin-4-yl)phenyl)cyclobutanemethyl]
